Experimental data published in ChEMBL document CHEMBL1201862, “PubChem BioAssay data set” (2004).
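Method: 48-hour compound exposure of cells in 96-well plates, five concentrations, linear interpolation of endpoints. GI50 = concentration required for 50% inhibition of growth.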 Active and inactive are the calls of the source. Rule as the data show it: active = GI50 up to about 1.1 µM and inactive = higher.

Columns and labels:
Assay in all cases: NCI-60 cell line screen, 48 h
A549 = tested on: A549
HCT-116 = tested on: HCT-116
MOLT-4 = tested on: MOLT-4
KM-20L2 = tested on: KM-20L2
IGROV-1 = tested on: IGROV-1
TK-10 = tested on: TK-10
SNB-75 = tested on: SNB-75
RXF 393 = tested on: RXF 393
EKVX = tested on: EKVX
OVCAR-5 = tested on: OVCAR-5
XF498 = tested on: XF498
SN12C = tested on: SN12C
HOP-62 = tested on: HOP-62
RXF 631 = tested on: RXF 631
LOX IMVI = tested on: LOX IMVI
OVCAR-4 = tested on: OVCAR-4
SR = tested on: SR
HT-29 = tested on: HT-29
NCI-H522 = tested on: NCI-H522
DMS-273 = tested on: DMS-273
HCC 2998 = tested on: HCC 2998
SK-MEL-2 = tested on: SK-MEL-2
HCT-15 = tested on: HCT-15
NCI-H226 = tested on: NCI-H226
U-251 = tested on: U-251
M14 = tested on: M14
COLO 205 = tested on: COLO 205
SF-539 = tested on: SF-539
CCRF-CEM = tested on: CCRF-CEM
HL-60 = tested on: HL-60
SK-MEL-28 = tested on: SK-MEL-28
SF-295 = tested on: SF-295
SF-268 = tested on: SF-268
SNB-19 = tested on: SNB-19
M19-MEL = tested on: M19-MEL
UACC-62 = tested on: UACC-62
786-0 = tested on: 786-0
DLD-1 = tested on: DLD-1
KM12 = tested on: KM12
SK-MEL-5 = tested on: SK-MEL-5
SW-620 = tested on: SW-620
ACHN = tested on: ACHN
LXFL 529 = tested on: LXFL 529
SNB-78 = tested on: SNB-78
NCI-H460 = tested on: NCI-H460
OVCAR-3 = tested on: OVCAR-3
K562 = tested on: K562
OVCAR-8 = tested on: OVCAR-8
NCI-H23 = tested on: NCI-H23
CAKI-1 = tested on: CAKI-1
DMS-114 = tested on: DMS-114
HOP-92 = tested on: HOP-92
A498 = tested on: A498
RPMI-8226 = tested on: RPMI-8226
SK-OV-3 = tested on: SK-OV-3
UO-31 = tested on: UO-31
Malme-3M = tested on: Malme-3M
UACC-257 = tested on: UACC-257

## COc1ccc2cc1Oc1ccc(cc1)CC1c3cc4c(cc3CCN1C)Oc1c(OC)cc3c(c1O4)C(C2)N(C)CC3 (stereo not drawn)
A549
  GI50: 4.71 µM (inactive)
HCT-116
  GI50: 1.7 µM (inactive)
MOLT-4
  GI50: 1.44 µM (inactive)
KM-20L2
  GI50: 2.55 µM (inactive)
IGROV-1
  GI50: > 10 µM (inactive)
TK-10
  GI50: 15.6 µM (inactive)
SNB-75
  GI50: 2.56 µM (inactive)
RXF 393
  GI50: 1.64 µM (inactive)
EKVX
  GI50: 9.79 µM (inactive)
OVCAR-5
  GI50: 13.6 µM (inactive)
XF498
  GI50: 1.94 µM (inactive)
SN12C
  GI50: 1.94 µM (inactive)
HOP-62
  GI50: 12.6 µM (inactive)
RXF 631
  GI50: 4.99 µM (inactive)
LOX IMVI
  GI50: 1.46 µM (inactive)
OVCAR-4
  GI50: 1.47 µM (inactive)
SR
  GI50: 1.53 µM (inactive)
HT-29
  GI50: 1.81 µM (inactive)
NCI-H522
  GI50: 2.11 µM (inactive)
DMS-273
  GI50: 1.63 µM (inactive)
HCC 2998
  GI50: 3.05 µM (inactive)
SK-MEL-2
  GI50: 2.8 µM (inactive)
HCT-15
  GI50: 2.42 µM
NCI-H226
  GI50: 1.72 µM (inactive)
U-251
  GI50: 2.26 µM (inactive)
M14
  GI50: 1.64 µM (inactive)
COLO 205
  GI50: 1.43 µM (inactive)
SF-539
  GI50: 2.13 µM (inactive)
CCRF-CEM
  GI50: 1.32 µM (inactive)
HL-60
  GI50: 1.96 µM (inactive)
SK-MEL-28
  GI50: 1.49 µM (inactive)
SF-295
  GI50: 1.98 µM (inactive)
SF-268
  GI50: 2.77 µM (inactive)
SNB-19
  GI50: 3.86 µM (inactive)
M19-MEL
  GI50: 4.01 µM (inactive)
UACC-62
  GI50: 3.21 µM (inactive)
786-0
  GI50: 7.66 µM (inactive)
DLD-1
  GI50: 2.96 µM (inactive)
KM12
  GI50: 2.11 µM (inactive)
SK-MEL-5
  GI50: 8.57 µM (inactive)
SW-620
  GI50: 1.69 µM (inactive)
ACHN
  GI50: 4.78 µM (inactive)
LXFL 529
  GI50: 2 µM (inactive)
SNB-78
  GI50: 17.6 µM (inactive)
NCI-H460
  GI50: 1.76 µM (inactive)
OVCAR-3
  GI50: 5.81 µM (inactive)
K562
  GI50: 1.75 µM (inactive)
OVCAR-8
  GI50: 2.12 µM (inactive)
NCI-H23
  GI50: 4.26 µM (inactive)

## O=C1C2C(C(=O)N1Cc1ccccc1)N(Cc1ccccc1)C(=O)N2Cc1ccccc1 (stereo not drawn)
A549
  GI50: > 100 µM (inactive)
HCT-116
  GI50: > 100 µM (inactive)
MOLT-4
  GI50: > 100 µM (inactive)
KM-20L2
  GI50: > 100 µM (inactive)
CAKI-1
  GI50: > 100 µM (inactive)
IGROV-1
  GI50: > 100 µM (inactive)
TK-10
  GI50: > 100 µM (inactive)
SNB-75
  GI50: 59.3 µM (inactive)
RXF 393
  GI50: > 100 µM (inactive)
DMS-114
  GI50: > 100 µM (inactive)
EKVX
  GI50: > 100 µM (inactive)
OVCAR-5
  GI50: > 100 µM (inactive)
XF498
  GI50: > 100 µM (inactive)
SN12C
  GI50: > 100 µM (inactive)
HOP-62
  GI50: > 100 µM (inactive)
HOP-92
  GI50: > 100 µM (inactive)
RXF 631
  GI50: > 100 µM (inactive)
LOX IMVI
  GI50: > 100 µM (inactive)
OVCAR-4
  GI50: > 100 µM (inactive)
SR
  GI50: > 100 µM (inactive)
HT-29
  GI50: > 100 µM (inactive)
NCI-H522
  GI50: > 100 µM (inactive)
HCC 2998
  GI50: > 100 µM (inactive)
HCT-15
  GI50: > 100 µM
NCI-H226
  GI50: > 100 µM (inactive)
U-251
  GI50: > 100 µM (inactive)
M14
  GI50: > 100 µM (inactive)
COLO 205
  GI50: > 100 µM (inactive)
A498
  GI50: > 100 µM (inactive)
RPMI-8226
  GI50: > 100 µM (inactive)
SF-539
  GI50: > 100 µM (inactive)
CCRF-CEM
  GI50: > 100 µM (inactive)
HL-60
  GI50: > 100 µM (inactive)
SK-MEL-28
  GI50: > 100 µM (inactive)
SF-295
  GI50: > 100 µM (inactive)
SK-OV-3
  GI50: > 100 µM (inactive)
UO-31
  GI50: > 100 µM (inactive)
SF-268
  GI50: > 100 µM (inactive)
SNB-19
  GI50: > 100 µM (inactive)
M19-MEL
  GI50: > 100 µM (inactive)
UACC-62
  GI50: > 100 µM (inactive)
786-0
  GI50: > 100 µM (inactive)
DLD-1
  GI50: > 100 µM (inactive)
KM12
  GI50: > 100 µM (inactive)
SK-MEL-5
  GI50: > 100 µM (inactive)
SW-620
  GI50: > 100 µM (inactive)
ACHN
  GI50: > 100 µM (inactive)
Malme-3M
  GI50: > 100 µM (inactive)
LXFL 529
  GI50: > 100 µM (inactive)
UACC-257
  GI50: > 100 µM (inactive)
SNB-78
  GI50: > 100 µM (inactive)
NCI-H460
  GI50: > 100 µM (inactive)
OVCAR-3
  GI50: > 100 µM (inactive)
K562
  GI50: > 100 µM (inactive)
OVCAR-8
  GI50: > 100 µM (inactive)
NCI-H23
  GI50: > 100 µM (inactive)

## O=C1C2=C(c3ccccc31)C(c1ccc(Cl)cc1)N1C(=O)CCSC1=N2 (stereo not drawn)
A549
  GI50: 69.3 µM (inactive)
HCT-116
  GI50: 69.2 µM (inactive)
MOLT-4
  GI50: 41.8 µM (inactive)
KM-20L2
  GI50: > 100 µM (inactive)
CAKI-1
  GI50: > 100 µM (inactive)
IGROV-1
  GI50: 98.6 µM (inactive)
TK-10
  GI50: > 100 µM (inactive)
SNB-75
  GI50: 43.2 µM (inactive)
DMS-114
  GI50: 67.6 µM (inactive)
EKVX
  GI50: 68.2 µM (inactive)
OVCAR-5
  GI50: > 100 µM (inactive)
XF498
  GI50: 41.3 µM (inactive)
SN12C
  GI50: 44.6 µM (inactive)
HOP-62
  GI50: > 100 µM (inactive)
HOP-92
  GI50: 31.4 µM (inactive)
RXF 631
  GI50: > 100 µM (inactive)
OVCAR-4
  GI50: 36.1 µM (inactive)
HT-29
  GI50: > 100 µM (inactive)
NCI-H522
  GI50: 45.5 µM (inactive)
DMS-273
  GI50: > 100 µM (inactive)
HCC 2998
  GI50: > 100 µM (inactive)
SK-MEL-2
  GI50: > 100 µM (inactive)
HCT-15
  GI50: 67.8 µM
NCI-H226
  GI50: 51.8 µM (inactive)
U-251
  GI50: > 100 µM (inactive)
M14
  GI50: > 100 µM (inactive)
COLO 205
  GI50: > 100 µM (inactive)
A498
  GI50: > 100 µM (inactive)
RPMI-8226
  GI50: 39 µM (inactive)
SF-539
  GI50: > 100 µM (inactive)
CCRF-CEM
  GI50: 51.1 µM (inactive)
HL-60
  GI50: 34.8 µM (inactive)
SK-MEL-28
  GI50: > 100 µM (inactive)
SF-295
  GI50: 99.3 µM (inactive)
SK-OV-3
  GI50: > 100 µM (inactive)
UO-31
  GI50: 42.9 µM (inactive)
SF-268
  GI50: > 100 µM (inactive)
SNB-19
  GI50: > 100 µM (inactive)
M19-MEL
  GI50: > 100 µM (inactive)
UACC-62
  GI50: 54.3 µM (inactive)
786-0
  GI50: > 100 µM (inactive)
DLD-1
  GI50: > 100 µM (inactive)
KM12
  GI50: 99.5 µM (inactive)
SK-MEL-5
  GI50: 47.9 µM (inactive)
SW-620
  GI50: 63.1 µM (inactive)
ACHN
  GI50: > 100 µM (inactive)
Malme-3M
  GI50: 89.3 µM (inactive)
LXFL 529
  GI50: 53.2 µM (inactive)
UACC-257
  GI50: > 100 µM (inactive)
OVCAR-3
  GI50: 84.3 µM (inactive)
K562
  GI50: 81.1 µM (inactive)
OVCAR-8
  GI50: > 10 µM (inactive)
NCI-H23
  GI50: 76.7 µM (inactive)
